How the values were obtained:
[1] = molecular target: D(2) dopamine receptor (Homo sapiens, UniProt P14416); experiment: Binding affinity for human Dopamine receptor D2
[2] = molecular target: D(3) dopamine receptor (Rattus norvegicus, UniProt P19020); experiment: Binding affinity for rat Dopamine receptor D3
[3] = molecular target: T1, Alpha-1B adrenergic receptor (Homo sapiens, UniProt P35368); experiment: Binding affinity for human Alpha-1B adrenergic receptor
T1 sequence (P35368 whole entry): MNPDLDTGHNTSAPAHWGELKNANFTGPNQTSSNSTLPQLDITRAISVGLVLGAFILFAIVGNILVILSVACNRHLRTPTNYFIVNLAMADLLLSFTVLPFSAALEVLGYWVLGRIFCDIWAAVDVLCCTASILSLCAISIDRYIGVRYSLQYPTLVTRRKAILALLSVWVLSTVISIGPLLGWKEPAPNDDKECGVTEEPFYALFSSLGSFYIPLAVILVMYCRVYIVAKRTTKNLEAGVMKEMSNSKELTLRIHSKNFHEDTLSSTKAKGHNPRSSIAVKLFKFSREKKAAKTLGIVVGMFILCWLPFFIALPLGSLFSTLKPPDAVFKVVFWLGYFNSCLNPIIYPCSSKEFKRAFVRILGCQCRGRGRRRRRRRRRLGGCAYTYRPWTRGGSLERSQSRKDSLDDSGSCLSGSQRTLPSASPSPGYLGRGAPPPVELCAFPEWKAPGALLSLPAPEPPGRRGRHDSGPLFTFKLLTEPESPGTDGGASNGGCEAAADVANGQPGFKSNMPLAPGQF

[4] = molecular target: T2, Alpha-1D adrenergic receptor (Homo sapiens, UniProt P25100); experiment: Binding affinity for human Alpha-1D adrenergic receptor
T2 sequence (P25100 whole entry): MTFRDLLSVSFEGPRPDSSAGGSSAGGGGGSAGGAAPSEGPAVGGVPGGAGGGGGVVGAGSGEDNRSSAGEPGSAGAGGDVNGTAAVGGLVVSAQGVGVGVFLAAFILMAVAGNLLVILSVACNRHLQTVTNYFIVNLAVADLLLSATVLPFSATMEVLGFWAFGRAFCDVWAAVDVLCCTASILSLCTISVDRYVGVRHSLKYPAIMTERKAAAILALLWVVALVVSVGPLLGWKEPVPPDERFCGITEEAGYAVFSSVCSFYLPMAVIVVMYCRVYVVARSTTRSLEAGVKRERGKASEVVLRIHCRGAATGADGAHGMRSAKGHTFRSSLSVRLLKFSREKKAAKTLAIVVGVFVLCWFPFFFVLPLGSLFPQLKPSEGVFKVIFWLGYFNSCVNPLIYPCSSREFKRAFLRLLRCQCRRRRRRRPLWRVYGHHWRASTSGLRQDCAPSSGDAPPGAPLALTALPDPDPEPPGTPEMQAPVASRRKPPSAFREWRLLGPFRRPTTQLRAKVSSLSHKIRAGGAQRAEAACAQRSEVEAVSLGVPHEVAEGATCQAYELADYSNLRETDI

[5] = molecular target: T3, Alpha-1A adrenergic receptor (Homo sapiens, UniProt P35348); experiment: Binding affinity for human Alpha-1A adrenergic receptor
T3 sequence (P35348 whole entry): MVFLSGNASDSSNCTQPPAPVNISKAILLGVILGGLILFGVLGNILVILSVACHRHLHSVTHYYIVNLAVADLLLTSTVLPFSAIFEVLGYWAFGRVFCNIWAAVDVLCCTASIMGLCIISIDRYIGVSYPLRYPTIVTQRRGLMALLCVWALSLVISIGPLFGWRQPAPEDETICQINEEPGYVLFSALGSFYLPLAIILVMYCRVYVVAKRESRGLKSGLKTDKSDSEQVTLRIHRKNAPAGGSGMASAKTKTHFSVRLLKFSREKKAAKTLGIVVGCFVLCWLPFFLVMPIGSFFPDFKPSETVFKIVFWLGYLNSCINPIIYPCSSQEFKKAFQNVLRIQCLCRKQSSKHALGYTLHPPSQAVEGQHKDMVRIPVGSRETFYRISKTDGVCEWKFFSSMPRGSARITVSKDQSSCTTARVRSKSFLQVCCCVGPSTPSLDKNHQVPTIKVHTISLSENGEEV

[6] = molecular target: T4, 5-hydroxytryptamine receptor 1A (Homo sapiens, UniProt P08908)
T4 sequence (P08908 whole entry): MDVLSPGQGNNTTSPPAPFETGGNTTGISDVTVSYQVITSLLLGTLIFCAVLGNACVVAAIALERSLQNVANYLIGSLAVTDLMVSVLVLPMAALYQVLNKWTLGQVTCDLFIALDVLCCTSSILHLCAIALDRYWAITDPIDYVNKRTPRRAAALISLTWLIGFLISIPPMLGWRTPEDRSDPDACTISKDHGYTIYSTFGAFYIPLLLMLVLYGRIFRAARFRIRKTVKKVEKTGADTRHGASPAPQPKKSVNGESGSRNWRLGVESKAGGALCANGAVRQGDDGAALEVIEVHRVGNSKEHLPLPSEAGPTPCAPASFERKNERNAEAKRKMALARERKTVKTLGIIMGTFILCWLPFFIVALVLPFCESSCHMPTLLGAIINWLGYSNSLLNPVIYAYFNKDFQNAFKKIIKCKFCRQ
Description: Binding affinity for human 5-hydroxytryptamine 1A receptor

Sequence of D(2) dopamine receptor (P14416 whole entry): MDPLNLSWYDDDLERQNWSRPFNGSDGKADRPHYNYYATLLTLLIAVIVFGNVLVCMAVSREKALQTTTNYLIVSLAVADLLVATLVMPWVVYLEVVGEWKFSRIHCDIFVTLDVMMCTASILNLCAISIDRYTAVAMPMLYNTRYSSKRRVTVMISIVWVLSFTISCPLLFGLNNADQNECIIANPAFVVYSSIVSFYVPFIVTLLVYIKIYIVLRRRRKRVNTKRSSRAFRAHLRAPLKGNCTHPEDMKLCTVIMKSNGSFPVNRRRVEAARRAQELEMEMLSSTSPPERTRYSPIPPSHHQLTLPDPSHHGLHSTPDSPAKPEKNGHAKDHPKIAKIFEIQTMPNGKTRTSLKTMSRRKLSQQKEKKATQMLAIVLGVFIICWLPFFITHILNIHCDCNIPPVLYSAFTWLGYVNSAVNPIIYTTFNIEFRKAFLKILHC
Sequence of D(3) dopamine receptor (P19020 whole entry): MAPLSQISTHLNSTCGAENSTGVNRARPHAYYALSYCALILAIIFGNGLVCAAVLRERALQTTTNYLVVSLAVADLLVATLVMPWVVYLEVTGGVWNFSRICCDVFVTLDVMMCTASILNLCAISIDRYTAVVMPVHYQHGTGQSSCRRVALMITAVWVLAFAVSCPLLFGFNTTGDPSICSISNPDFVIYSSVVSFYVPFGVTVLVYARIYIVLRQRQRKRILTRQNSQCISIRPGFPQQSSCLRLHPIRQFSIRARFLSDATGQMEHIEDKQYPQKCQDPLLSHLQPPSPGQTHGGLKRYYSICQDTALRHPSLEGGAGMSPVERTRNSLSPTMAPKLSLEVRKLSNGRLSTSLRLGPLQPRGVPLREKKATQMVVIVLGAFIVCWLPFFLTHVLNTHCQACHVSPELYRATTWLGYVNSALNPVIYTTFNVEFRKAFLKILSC

Structure (SMILES) | Ki [1] [nM] | Ki [2] [nM] | Ki [3] [nM] | Ki [4] [nM] | Ki [5] [nM] | Ki [6] [nM]
O=C1CC2(CCCC2)CC(=O)N1CCN1CCN(c2cc(F)ccc2F)CC1 | 120 | 8.1 | 54 | 0.95 |  | 
O=C1CC2(CCCC2)CC(=O)N1CCN1CCN(c2ccc(F)cc2)CC1 | 2200 | 91 | 255 | 14 | 620 | 54
COc1ccccc1N1CCN(CCN2C(=O)CC3(CCCC3)CC2=O)CC1 [BMY-7378] | 14 | 3.1 |  |  |  | 0.46
O=C1CC2(CCCC2)CC(=O)N1CCN1CCN(c2ccc(F)cc2F)CC1 |  |  | 1100 | 5.6 | 3800 | 24
C[C@@H](CN1CCN(c2cc(F)c(F)cc2F)CC1)N1C(=O)CC2(CCCC2)CC1=O |  |  |  | 124 |  | 
O=C1CC2(CCCC2)CC(=O)N1CCN1CCN(c2ccc(F)c(F)c2)CC1 | 2200 | 160 | 1400 |  | 4100 | 55
O=C1CC2(CCCC2)CC(=O)N1CCN1CCN(c2ccccc2F)CC1 | 140 | 5.2 | 67 |  |  | 
C[C@H](CN1CCN(c2cc(F)c(F)cc2F)CC1)N1C(=O)CC2(CCCC2)CC1=O | 580 | 120 |  |  | 14000 | 
O=C1CC2(CCCC2)CC(=O)N1CCN1CCN(c2cc(F)c(F)cc2F)CC1 | 700 | 23 | 380 | 1.9 | 4400 | 360

Source: ChEMBL document CHEMBL1143615, “Synthesis and structure-activity relationship of fluoro analogues of 8-{2-[4-(4-methoxyphenyl)piperazin-1yl]ethyl}-8-azaspiro[4.5]decane-7,9-dione as selective alpha(1d)-adrenergic receptor antagonists” (J Med Chem, 2005)
